US9227956B2 (Pfizer Inc., priority 2013, dated 2016)

Legend:
[1] = system: human PCSK9; test: PCSK9 AlphaLISA assay, PCSK9 lowering in WT7 cells; conditions: WT7 cells (Huh7 stably over-expressing human PCSK9); secreted PCSK9 by AlphaLISA; overnight incubation (16-24 h); top concentration 20 μM; read-out: Cell Based PCSK9 IC50
Description: An in-vitro AlphaLISA assay (Perkin Elmer) was developed in order to quantitate the level of PCSK9 secreted into the cell culture media following compound treatment. To detect and measure PCSK9 protein an in-house generated anti-PCSK9 antibody was coupled to AlphaLISA acceptor beads by an external vendor (PerkinElmer) and a second internally developed anti-PCSK9 antibody with an epiptope distinct from that of the acceptor beads was biotinylated in house. Streptavidin coated-donor beads (Perkin Elmer) are also included in the assay mixture which then binds the biotinylated anti-PCSK9 antibody and in the presence of PCSK9 this donor complex and acceptor beads are brought into close proximity. […] The ability of compound to modulate PCSK9 protein levels in conditioned media by AlphaLISA was assessed in the human hepatocellular carcinoma cell line Huh7, stably over-expressing human PCSK9. […] Following plasmid transfection the stable WT7 clone was identified and maintained under Zeocin selection. Compound screening was performed in 384-well plates where WT7 cells were plated at a density of 7500 cells per well in 20 μL of tissue culture media containing compound in an eleven point, 0.5 log dilution format at a high treatment concentration of 20 μM in a final volume of 0.5% DMSO. In additional to these test compound conditions each screening plate also included wells that contained 20 μM puromycin as a positive assay control defined as high percent effect, HPE, as well as wells containing media in 0.5% DMSO as a negative treatment control defined as zero percent effect, ZPE. After overnight compound incubation (16-24 h) the tissue culture media was collected and an aliquot from each sample was transferred to individual wells of a 384-well white Optiplate (Perkin Elmer). The coupled antibodies and donor beads were added to the assay plates in a buffer composed of 30 mM Tris pH 7.4, 0.02% Tween-20 and 0.02% Casein. Anti-PCSK9 acceptor beads (final concentration of 10 μg/mL) and anti-PCSK9 biotinylated antibody (final concentration of 3 nM) were added and incubated for 30 minutes at room temperature followed by the addition of the streptavidin donor beads (final concentration 40 μg/mL) for an additional 60 minutes. Additionally a standard curve was generated where AlphaLISA reagents were incubated in wells spiked with recombinant human PCSK9 diluted in tissue culture media from 5000 ng/mL to 0.6 ng/mL. […] The test compound data were converted into percent effect, using the ZPE and HPE controls as 0% and 100% activity, respectively. The equation used for converting each well reading into percent effect was:
[formula] IC50 was then calculated and reported as the midpoint in the percent effect curve in molar units and the values are reported under the Cell Based PCSK9 IC50 (μM) column header within Table 1 Biological Data. Additionally, to monitor the selectivity of compound response for PCSK9 the level of a second secreted protein, Transferrin, was measured from the same conditioned media treated with test compound by AlphaLISA. […] To detect and quantify effects on Transferrin 0.01 mL of the culture media was transferred to a 384-well white Optiplate and 0.01 mL of media was added to bring the volume to 0.02 ml. Anti-Transferrin acceptor beads were added to a final concentration of 10 μg/mL, biotinylated anti-Transferrin at 3 nM and streptavidin donor beads at 40 μg/mL. Percent effect and IC50 for Transferrin was computed in a similar manner as that described for PCSK9.

[2] = system: PCSK9; test: PCSK9 lowering in sandwich culture human hepatocytes (SCHH); type: cell-based; conditions: maximum response versus vehicle
Description: Test compound in-vitro pharmacokinetic and pharmacodynamic relationships were measured in sandwich culture primary cryopreserved human hepatocytes. Within these studies SCHH cells (BD Biosciences IVT) were thawed at 37° C. then placed on ice, after which the cells were added to pre-warmed (37° C.) In VitroGRO-HT media and centrifuged at 50×g for 3 min. The cell pellet was re-suspended to 0.8×10^6 cells/mL in InVitroGRO-CP plating medium and cell viability determined by trypan blue exclusion. On day 1, hepatocyte suspensions were plated in BioCoat 96-well plates at a density of 80000 cells/well in a volume of 0.1 mL/well. After 18 to 24 hours of incubation at 37° C. in 5% CO2, cells were overlaid with ice-cold 0.25 mg/mL BD Matrigel Matrix Phenol Red-Free in incubation medium at 0.1 mL/well. Cultures were maintained at 37° C. in 5% CO2 in InVitroGRO-HI (FBS-free media), which was replaced every 24 hours and time course treatments were initiated on day 5. Prior to compound treatment cell plates were washed 3 times with 0.1 mL/well InVitroGRO-HI and 0.09 mL of media was added back in preparation for the compound additions. 1 uL of either DMSO or compound DMSO stocks at 30 mM, 10 mM, 3 mM and 1 mM were stamped into 96 well V bottom polypropylene plates. 0.099 mL of media was added to the compound plate and mixed thoroughly before the addition of 0.010 mL from the interim compound plate to the cell plate. […] At the indicated time, 0.08 mL of media was removed from the cell plates and frozen for subsequent analysis of secreted PCSK9 by AlphaLISA and for determination of drug levels in the media by liquid chromatography-tandem mass spectrometry (LC-MS/MS). The remaining media was then aspirated and the cell layers were washed 3× with ice cold Hanks Balanced Salt Solution (HBSS) under shaking conditions to remove the matrigel overlay and plates were then stored at −20° C. for subsequent determination of drug levels in the cells by LC-MS/MS. AlphaLISA determination of PCSK9 protein levels within the conditioned media was performed ultilizing the identical reagents and detection protocols described above for the WT7 cells.

[3] = system: human PCSK9; test: Cell Free PCSK9 Assay (PCSK9-luciferase RNA translated in HeLa cell lysate); type: biochemical; conditions: 30° C. for 45 minutes, luciferase readout, top concentration 100 μM
Description: In order to eliminate the permeability barrier inherent to the WT7 and SCHH cell-based assays a cell-free system was also established to access compound activity. […] The construct was then in-vitro transcribed using the MEGAscript T7 Kit (Life Technologies) and RNA subsequently purified incorporating the MEGAclear Kit (Life Technologies) according to manufacturer's protocols. […] Growth was in a 50 L wavebag at a rocker speed of 25 rpm and angle 6.1 with 5% CO2 and 0.2 LPM flow rate with cells harvested at a density of 2-2.5e6/ml. Lysates additionally contained 1 tablet of Roche cOmplete-EDTA protease inhibitors per 50 ml with tris(2-carboxyethyl)phosphine (Biovectra) substituted for dithiothreitol, and were clarified by an additional final centrifugation at 10,000 rpm in a Sorvall SS34 rotor at 4° C. for 10 minutes. Compound screening was performed in 384-well plates in an eleven point, 0.5 log dilution format at a top test compound concentration of 100 μM in a final volume of 0.5% DMSO. […] Upon assay completion 1 μL from each reaction solution was removed and transferred to a second 384-well Optiplate (Perkin Elmer) containing 24 μL of SteadyGlo (Promega) and signal intensity was measured on the Envision (Perkin Elmer) using the enhanced luminescence protocol. […] The test compound data were converted into percent effect, using the ZPE and HPE controls as 0% and 100% activity, respectively, applying Equation 1 above. IC50 was then calculated and reported as the midpoint in the percent effect curve in molar units and the values are reported under the Cell Free PCSK9 IC50 (μM) column header within Table 1 Biological Data.

Row | SMILES | IC50 [1] [µM] | Sandwich Culture Hepatocyte (SCHH) PCSK9 Lowering ([2]; at 6 h at 30 uM) [% at 6 h at 30 uM] | IC50 [3] [µM] | Sandwich Culture Hepatocyte (SCHH) PCSK9 Lowering ([2]; at 8 h at 30 μM)
1 | CCC(=O)OC(CC)n1nnc(-c2c(-c3ccc(C(=O)N(c4ncccc4C)[C@@H]4CCCNC4)cc3)cnn2C)n1 (single isomer, unassigned) [Example 47] | > 20 | 12 |  | 
2 | O=C(c1ccc(-c2cnn3cccnc23)cc1)N(c1ncccc1Cl)[C@@H]1CCCNC1 [Example 2, N-(3-chloropyridin-2-yl)-N-[(3R)-piperidin-3-yl]-4-(pyrazolo[1,5-a]pyrimidin-3-yl)benzamide] | 1.7 |  | 0.69 | 
3 | Cn1ncc(-c2ccc(C(=O)N(c3nccc4ccccc34)[C@@H]3CCCNC3)cc2)c1C(=O)O [Example 4, 4-(4-{isoquinolin-1-yl[(3R)-piperidin-3-yl]carbamoyl}phenyl)-1-methyl-1H-pyrazole-5-carboxylic acid] | > 20 |  | 3.8 | 
4 | CCOC(=O)OC(C)OC(=O)c1c(-c2ccc(C(=O)N(c3nccc4ccccc34)[C@@H]3CCCNC3)cc2)cnn1C (stereo partly drawn) [Example 11, 1-[(ethoxycarbonyl)oxy]ethyl 4-(4-{isoquinolin-1-yl[(3R)-piperidin-3-yl]carbamoyl}phenyl)-1-methyl-1H-pyrazole-5-carboxylate] |  |  | 2.1 | 
5 | CCOC(=O)OC(C)OC(=O)c1c(-c2ccc(C(=O)N(c3nccc4ccn(C)c34)[C@@H]3CCCNC3)cc2)cnn1C (stereo partly drawn) [Example 14, 1-[(ethoxycarbonyl)oxy]ethyl 1-methyl-4-(4-{(1-methyl-1H-pyrrolo[2,3-c]pyridin-7-yl)[(3R)-piperidin-3-yl]carbamoyl}phenyl)-1H-pyrazole-5-carboxylate] | 4.5 |  |  | 54% at 8 h at 30 μM
6 | CCOC(=O)OC(C)n1nnnc1-c1c(-c2ccc(C(=O)N(c3ncccc3C)[C@@H]3CCCNC3)cc2)cnn1C (some centres unmarked) [Example 21] | > 20 | 57 |  | 
7 | Cn1ncc(-c2ccc(C(=O)N(c3ncccc3Cl)[C@@H]3CCCNC3)cc2)c1C(=O)NS(=O)(=O)C(F)(F)F [Example 22, 4-(4-{(3-chloropyridin-2-yl)[(3R)-piperidin-3-yl]carbamoyl}phenyl)-1-methyl-N-[(trifluoromethyl)sulfonyl]-1H-pyrazole-5-carboxamide] | > 20 |  | 5.8 | 
8 | Cn1ncc(-c2ccc(C(=O)N(c3ncccc3Cl)[C@@H]3CCCNC3)cc2)c1C(=O)Nc1nnn[nH]1 [Example 24, 4-(4-{(3-chloropyridin-2-yl)[(3R)-piperidin-3-yl]carbamoyl}phenyl)-1-methyl-N-(1H-tetrazol-5-yl)-1H-pyrazole-5-carboxamide] | > 20 |  | 25.3 | 
9 | Cn1ncc(-c2ccc(C(=O)N(c3ncccc3Cl)[C@@H]3CCCNC3)cc2)c1C(=O)NO [Example 25, 4-(4-{(3-chloropyridin-2-yl)[(3R)-piperidin-3-yl]carbamoyl}phenyl)-N-hydroxy-1-methyl-1H-pyrazole-5-carboxamide] | > 20 |  | 2.97 | 
10 | Cn1ncc(-c2ccc(C(=O)N(c3ncccc3Cl)[C@@H]3CCCNC3)cc2)c1-c1nn[nH]n1 [Example 26, N-(3-chloropyridin-2-yl)-4-[1-methyl-5-(2H-tetrazol-5-yl)-1H-pyrazol-4-yl]-N-[(3R)-piperidin-3-yl]benzamide] | > 20 |  | 5.75 | 
11 | Cn1ncc(-c2ccc(C(=O)N(c3ncccc3Cl)[C@@H]3CCCNC3)cc2)c1C(=O)NS(C)(=O)=O [Example 27, 4-(4-{(3-chloropyridin-2-yl)[(3R)-piperidin-3-yl]carbamoyl}phenyl)-1-methyl-N-(methylsulfonyl)-1H-pyrazole-5-carboxamide] | > 20 |  | 14.3 | 
12 | Cc1cccnc1N(C(=O)c1ccc(-c2cnn(C)c2C(=O)NS(C)(=O)=O)cc1)[C@@H]1CCCNC1 [Example 28, 1-methyl-4-(4-{(3-methylpyridin-2-yl)[(3R)-piperidin-3-yl]carbamoyl}phenyl)-N-(methylsulfonyl)-1H-pyrazole-5-carboxamide] | > 20 |  | 16.8 | 
13 | CCOC(=O)OC(C)N(C(=O)c1c(-c2ccc(C(=O)N(c3ncccc3C)[C@@H]3CCCNC3)cc2)cnn1C)S(C)(=O)=O (stereo partly drawn) [Example 29, ethyl 1-[{[1-methyl-4-(4-{(3-methylpyridin-2-yl)[(3R)-piperidin-3-yl]carbamoyl}phenyl)-1H-pyrazol-5-yl]carbonyl}methylsulfonyl)amino]ethyl carbonate] | > 20 | 72 |  | 
14 | CCOC(=O)O[C@@H](C)n1nnc(-c2c(-c3ccc(C(=O)N(c4ncccc4C)[C@@H]4CCCNC4)cc3)cnn2C)n1 [Example 30, ethyl (1S)-1-{5-[1-methyl-4-(4-{(3-methylpyridin-2-yl)[(3R)-piperidin-3-yl]carbamoyl}phenyl)-1H-pyrazol-5-yl]-2H-tetrazol-2-yl}ethyl carbonate] | > 16.7 |  |  | 11% at 8 h at 30 uM
15 | CCOC(=O)O[C@H](C)n1nnc(-c2c(-c3ccc(C(=O)N(c4ncccc4C)[C@@H]4CCCNC4)cc3)cnn2C)n1 [Example 31, ethyl (1R)-1-{5-[1-methyl-4-(4-{(3-methylpyridin-2-yl)[(3R)-piperidin-3-yl]carbamoyl}phenyl)-1H-pyrazol-5-yl]-2H-tetrazol-2-yl}ethyl carbonate] | > 20 |  |  | 19% at 8 h at 30 uM
